# Tests used:
# Human PTP1B = biological target: T1, Human PTP1B (Homo sapiens, UniProt P18031); test: Assay of PTP1B activity under cell-free conditions (p-NPP substrate); format: biochemical; details: FIG. 2
# T1 construct: made in house; host or cells: E. coli BL21(DE3)
# T1 sequence (P18031 1-435): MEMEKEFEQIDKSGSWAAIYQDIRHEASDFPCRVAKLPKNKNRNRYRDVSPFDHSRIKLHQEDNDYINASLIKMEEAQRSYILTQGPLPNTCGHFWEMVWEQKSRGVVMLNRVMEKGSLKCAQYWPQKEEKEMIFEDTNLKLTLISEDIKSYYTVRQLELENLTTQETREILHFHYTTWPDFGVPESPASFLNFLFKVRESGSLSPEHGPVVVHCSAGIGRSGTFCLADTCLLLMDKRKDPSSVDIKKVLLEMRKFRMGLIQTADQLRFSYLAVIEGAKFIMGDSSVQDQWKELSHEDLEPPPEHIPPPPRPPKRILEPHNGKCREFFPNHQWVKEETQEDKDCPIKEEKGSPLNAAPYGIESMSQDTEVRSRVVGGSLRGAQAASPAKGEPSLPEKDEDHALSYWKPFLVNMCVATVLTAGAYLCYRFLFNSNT
# Experimental: Protein tyrosine phosphatase was measured under cell-free conditions by a method partially modified from the methods described in previous reports (Baba Y, et al. J Am Chem Soc 2003; 125; 9740-9749; Rice R L, et al. Biochemistry 1997; 36: 15965-15974). Human PTP1B was cloned to a pGEX-6P-3 vector having a GST tag at the NH2 terminal, and expressed in competent E. coli BL21(DE3) suitable for transformation and protein expression. GST fusion PTP1B was affinity-purified using glutathione sepharose 4B (GE Healthcare Bio-Science KK, Tokyo, Japan). It was reacted with p-nitrophenylphosphate (p-NPP) (Sigma, St. Louis, Mo., USA) as a substrate and PTP1B activity was measured. The enzyme was pre-incubated in a reaction medium [50 mM HEPES, 1 mM EDTA, 50 mM NaCl, 1 mM dithiothreitol, pH 7.2] at 37° C. for 30 min in the presence or absence of diDCP-LA-PE and with or without addition of Na3VO4 which is a PTP1B inhibitor. Then, p-NPP (10 mM) was added to the reaction medium, and the mixture was incubated for 60 min. The reaction was discontinued by the addition of 0.1N NaOH. Dephosphorylated p-NPP, i.e., p-NP, was quantified at an absorbance of 405 nm by using SpectraMax PLUS384 (Molecular Devices, Sunnyvale, Calif., USA).
# [1] = tested on: C57BL/KsJ-lepr db/lepr db mouse; test: Glucose tolerance test in type 2 diabetes model mouse; format: in vivo; details: oral, 0.01-3 mg/kg, 30 min before glucose 2 g/kg, FIG. 10
# Experimental: C57BL/KsJ-lepr^db/lepr^db mouse (female, 8-week-old) (CLEA Japan; Tokyo, Japan) was used. The glucose tolerance test was performed using the mouse starved for 12 hr. Glucose (2 g/ml/kg body weight) was administered by gavage, and the time point thereof was taken as 0 h. diDCP-LA-PE (0.01, 0.1, 1, 3 mg/kg), insulin (0.75 U/kg) or brine was orally administered 30 min before administration of glucose. The blood (10 μl) was collected from the tail vein at the time points of 0, 30, 60, and 90 min, and each plasma sample which was labeled with p-aminobenzylethylester and prepared from the obtained blood was loaded on high performance liquid chromatography (HPLC) system (LC-10ATvp; Shimadzu Co., Kyoto, Japan). The glucose concentration was calculated from a peak area/concentration analytical curve prepared using the standard glucose solution.
smiles,measurement,setting,value
"CCCCCC1CC1CC1CC1CCCCCCCC(=O)OC[C@H](COP(=O)(O)OCCN)OC(=O)CCCCCCCC1CC1CC1CC1CCCCC (some centres unmarked) [diDCP-LA-PE, 1,2-o-bis-[8-{2-(2-pentyl-cyclopropylmethyl)-cyclopropyl}-octanoyl]-sn-glycero-3-phosphatidylethanolamine]","PTP1B inhibition (phosphatase activity, dephosphorylated p-NPP)",Human PTP1B,inhibits PTP1B in a concentration-dependent manner
same,Decrease of blood glucose level,[1],decrease the blood glucose level in a dose-dependent manner

# From US9512152B2, “Phospholipid compound containing unsaturated fatty acid derivative having cyclopropane ring” (NISHIZAKI BIOINFORMATION RESEARCH INSTITUTE, priority 2013, dated 2016)
